Laboratory results from ChEMBL document CHEMBL3045862, “PRE-CLINICAL AND CLINICAL PHARMACOKINETICS OF THE DIASTEREOMERS OF ARTEETHER, A POTENT ANTIMALARIAL” (Med Chem Res, 2004).

Tests used:
[1] = Clearance in Rattus norvegicus Sprague-Dawley (rat) at 2 mg/kg, iv; format: ADME, organism-based; parameters: dose 2 mg/kg, route intravenous; details: Sprague-Dawley, in vivo
[2] = Mean residence time in Macaca mulatta (Rhesus monkey) at 7.5 mg/kg, administered intramuscularly; format: ADME, organism-based; parameters: dose 7.5 mg/kg, route intramuscular; details: in vivo, im
Rattus norvegicus [3] = assay: Volume of distribution in Rattus norvegicus Sprague-Dawley (rat) at 30 mg/kg, po; format: ADME, organism-based; parameters: dose 30 mg/kg, route oral; details: in vivo
[4] = Clearance in Rattus norvegicus Sprague-Dawley (rat) at 30 mg/kg, administered intramuscularly; format: ADME, organism-based; parameters: dose 30 mg/kg, route intramuscular; details: Sprague-Dawley, in vivo, im
Rattus norvegicus [5] = assay: Dose normalized AUC in Rattus norvegicus Sprague-Dawley (rat) at 17.5 mg/kg, administered intramuscularly; format: ADME, organism-based; parameters: dose 17.5 mg/kg, route intramuscular; details: in vivo, im
[6] = Mean residence time in Macaca mulatta (Rhesus monkey) at 4 mg/kg, iv; format: ADME, organism-based; parameters: dose 4 mg/kg, route intravenous; details: in vivo
[7] = Cmax in Macaca mulatta (Rhesus monkey) at 50 mg/kg, po; format: ADME, organism-based; parameters: dose 50 mg/kg, route oral; details: in vivo
[8] = Cmax in Rattus norvegicus Sprague-Dawley (rat) at 30 mg/kg, administered intramuscularly; format: ADME, organism-based; parameters: dose 30 mg/kg, route intramuscular; details: in vivo, im
[9] = Tmax in Rattus norvegicus Sprague-Dawley (rat) at 9 mg/kg, administered intramuscularly; format: ADME, organism-based; parameters: dose 9 mg/kg, route intramuscular; details: in vivo, im
[10] = Clearance in Rattus norvegicus Sprague-Dawley (rat) at 9 mg/kg, po; format: ADME, organism-based; parameters: dose 9 mg/kg, route oral; details: Sprague-Dawley, in vivo
[11] = Elimination half life in Rattus norvegicus Sprague-Dawley (rat) at 17.5 mg/kg, po; format: ADME, organism-based; parameters: dose 17.5 mg/kg, route oral; details: in vivo, read-out: beta t1/2 (converted)
[12] = Elimination half life in Rattus norvegicus Sprague-Dawley (rat) at 30 mg/kg, administered intramuscularly; format: ADME, organism-based; parameters: dose 30 mg/kg, route intramuscular; details: in vivo, im, read-out: beta t1/2 (converted)
Rattus norvegicus [13] = assay: Dose normalized AUC in Rattus norvegicus Sprague-Dawley (rat) at 9 mg/kg, administered intramuscularly; format: ADME, organism-based; parameters: dose 9 mg/kg, route intramuscular; details: in vivo, im
[14] = Volume of distribution in Rattus norvegicus Sprague-Dawley (rat) at 2 mg/kg, iv; format: ADME, organism-based; parameters: dose 2 mg/kg, route intravenous; details: in vivo
Rattus norvegicus [15] = assay: Dose normalized AUC in Rattus norvegicus Sprague-Dawley (rat) at 30 mg/kg, administered intramuscularly; format: ADME, organism-based; parameters: dose 30 mg/kg, route intramuscular; details: in vivo, im
[16] = Elimination half life in Rattus norvegicus Sprague-Dawley (rat) at 9 mg/kg, po; format: ADME, organism-based; parameters: dose 9 mg/kg, route oral; details: in vivo, read-out: beta t1/2 (converted)
[17] = AUC (0 to infinity) in Rattus norvegicus Sprague-Dawley (rat) at 17.5 mg/kg, po; format: ADME, organism-based, Plasma; parameters: time infinity, dose 17.5 mg/kg, route oral; details: Sprague-Dawley, plasma
[18] = Elimination half life in Rattus norvegicus Sprague-Dawley (rat) at 17.5 mg/kg, administered intramuscularly; format: ADME, organism-based; parameters: dose 17.5 mg/kg, route intramuscular; details: in vivo, im, read-out: beta t1/2 (converted)
[19] = Clearance in Macaca mulatta (Rhesus monkey) at 7.5 mg/kg, administered intramuscularly; format: ADME, organism-based; parameters: dose 7.5 mg/kg, route intramuscular; details: in vivo, im
[20] = Volume of distribution in Macaca mulatta (Rhesus monkey) at 4 mg/kg, iv; format: ADME, organism-based; parameters: dose 4 mg/kg, route intravenous; details: in vivo
Rattus norvegicus [21] = assay: Volume of distribution in Rattus norvegicus Sprague-Dawley (rat) at 9 mg/kg, administered intramuscularly; format: ADME, organism-based; parameters: dose 9 mg/kg, route intramuscular; details: in vivo, im
[22] = AUC (0 to infinity) in Macaca mulatta (Rhesus monkey) at 7.5 mg/kg, administered intramuscularly; format: ADME, organism-based, Plasma; parameters: time infinity, dose 7.5 mg/kg, route intramuscular; details: plasma, im
[23] = Mean residence time in Rattus norvegicus Sprague-Dawley (rat) at 30 mg/kg, administered intramuscularly; format: ADME, organism-based; parameters: dose 30 mg/kg, route intramuscular; details: in vivo, im
[24] = Elimination half life in Macaca mulatta (Rhesus monkey) at 50 mg/kg, po; format: ADME, organism-based; parameters: dose 50 mg/kg, route oral; details: in vivo, read-out: beta t1/2 (converted)
[25] = Tmax in Rattus norvegicus Sprague-Dawley (rat) at 9 mg/kg, po; format: ADME, organism-based; parameters: dose 9 mg/kg, route oral; details: in vivo
[26] = Cmax in Rattus norvegicus Sprague-Dawley (rat) at 30 mg/kg, po; format: ADME, organism-based; parameters: dose 30 mg/kg, route oral; details: in vivo
Rattus norvegicus [27] = assay: Dose normalized AUC in Rattus norvegicus Sprague-Dawley (rat) at 2 mg/kg, iv; format: ADME, organism-based; parameters: dose 2 mg/kg, route intravenous; details: in vivo
Rattus norvegicus [28] = assay: Volume of distribution in Rattus norvegicus Sprague-Dawley (rat) at 17.5 mg/kg, po; format: ADME, organism-based; parameters: dose 17.5 mg/kg, route oral; details: in vivo
[29] = AUC (0 to infinity) in Rattus norvegicus Sprague-Dawley (rat) at 17.5 mg/kg, administered intramuscularly; format: ADME, organism-based, Plasma; parameters: dose 17.5 mg/kg, route intramuscular, time infinity; details: Sprague-Dawley, plasma, im
[30] = Mean residence time in Rattus norvegicus Sprague-Dawley (rat) at 2 mg/kg, iv; format: ADME, organism-based; parameters: dose 2 mg/kg, route intravenous; details: in vivo
Rhesus monkey = assay: Dose normalized AUC in Macaca mulatta (Rhesus monkey) at 4 mg/kg, iv; format: ADME, organism-based; parameters: dose 4 mg/kg, route intravenous; details: in vivo
[31] = Cmax in Rattus norvegicus Sprague-Dawley (rat) at 9 mg/kg, po; format: ADME, organism-based; parameters: dose 9 mg/kg, route oral; details: in vivo
[32] = Mean residence time in Rattus norvegicus Sprague-Dawley (rat) at 30 mg/kg, po; format: ADME, organism-based; parameters: dose 30 mg/kg, route oral; details: in vivo
[33] = Tmax in Rattus norvegicus Sprague-Dawley (rat) at 30 mg/kg, administered intramuscularly; format: ADME, organism-based; parameters: dose 30 mg/kg, route intramuscular; details: in vivo, im
[34] = Elimination half life in Rattus norvegicus Sprague-Dawley (rat) at 9 mg/kg, administered intramuscularly; format: ADME, organism-based; parameters: dose 9 mg/kg, route intramuscular; details: in vivo, im, read-out: beta t1/2 (converted)
[35] = Elimination half life in Macaca mulatta (Rhesus monkey) at 4 mg/kg, iv; format: ADME, organism-based; parameters: dose 4 mg/kg, route intravenous; details: in vivo, read-out: beta t1/2 (converted)
[36] = Mean residence time in Rattus norvegicus Sprague-Dawley (rat) at 17.5 mg/kg, po; format: ADME, organism-based; parameters: dose 17.5 mg/kg, route oral; details: in vivo
[37] = Clearance in Homo sapiens (human) at 150 mg; format: ADME, organism-based; details: in vivo
Rattus norvegicus [38] = assay: Dose normalized AUC in Rattus norvegicus Sprague-Dawley (rat) at 30 mg/kg, po; format: ADME, organism-based; parameters: dose 30 mg/kg, route oral; details: in vivo
[39] = Tmax in Macaca mulatta (Rhesus monkey) at 7.5 mg/kg, administered intramuscularly; format: ADME, organism-based; parameters: dose 7.5 mg/kg, route intramuscular; details: in vivo, im

`CCO[C@H]1O[C@@H]2O[C@@]3(C)CC[C@H]4[C@H](C)CC[C@@H]([C@H]1C)[C@@]24OO3` [ARTEMOTIL] gave a clearance [1] of 7.6 L/h/kg, an MRT [2] of 26.7 h and a Vd (Rattus norvegicus [3]) of 3024.2 L/kg. The CL/F [4] was 45.7 L/h/kg, the AUC/dose (Rattus norvegicus [5]) was 197.1 ng·h/mL and the MRT [6] was 2.8 h. For the same molecule, the Cmax [7] was 1.7 ng/mL, the Cmax [8] was 27.8 ng/mL and the Tmax [9] was 0.333 h. The CL/F [10] was 128 L/h/kg, the half-life [11] was 4.5 h and the half-life [12] was 25.2 h. It also gave an AUC/dose (Rattus norvegicus [13]) of 187.8 ng·h/mL, a Vd [14] of 9.3 L/kg and an AUC/dose (Rattus norvegicus [15]) of 19.4 ng·h/mL. For the same molecule, the half-life [16] was 4.2 h, the AUC(0-inf) [17] was 0.0339 µg·h/mL and the half-life [18] was 27.5 h. For the same molecule, the CL/F [19] was 7.1 L/h/kg, the Vd [20] was 8.6 L/kg and the Vd (Rattus norvegicus [21]) was 213.2 L/kg. The AUC(0-inf) [22] was 0.747 µg·h/mL, the MRT [23] was 44.2 h and the half-life [24] was 4.4 h. For the same molecule, the Tmax [25] was 5 min, the Cmax [26] was 8.1 ng/mL and the AUC/dose (Rattus norvegicus [27]) was 132 ng·h/mL. The Vd (Rattus norvegicus [28]) was 1965.9 L/kg, the AUC(0-inf) [29] was 2.41 µg·h/mL and the MRT [30] was 0.9 h. It also gave an AUC/dose (Rhesus monkey) of 435.8 ng·h/mL, a Cmax [31] of 10.3 ng/mL and an MRT [32] of 3.4 h. It also gave a Tmax [33] of 0.167 h, a half-life [34] of 28.5 h and a half-life [35] of 2.6 h. The MRT [36] was 6.9 h, the clearance [37] was 0.8 L/h/kg and the AUC/dose (Rattus norvegicus [38]) was 1.2 ng·h/mL. For the same molecule, the Tmax [39] was 1.83 h.
